Reference: patent US20070197657A1, “Method for treating non-inflammatory musculoskeletal pain” (SRZ Properties, Inc., priority 2005, published 2007)
Entries after “also recorded” stand apart in the source; their conditions may differ.

Key:
[1] = test system: monosodium iodoacetate-induced tactile allodynia; assay: monosodium iodoacetate-induced tactile allodynia (von Frey filaments); assay type: in vivo, rat
[2] = test system: monosodium iodoacetate-induced mechanical hyperalgesia; assay: monosodium iodoacetate-induced mechanical hyperalgesia (Randall-Selitto paw pressure); assay type: in vivo, rat; settings: for mechanical hyperalgesia (paw pressure withdrawal threshold) compared to iodoacetate/vehicle treated animals: day 3; for mechanical hyperalgesia (paw pressure withdrawal threshold): day 7
[3] = test system: formalin-induced flinching and licking of the affected paw; assay: rat formalin paw test (late phase); assay type: in vivo
Experimental: Rats were given an intraplantar injection of 5% formalin (50 μl) into the posterior left paw. This treatment induces a recognizable flinching and licking response of the affected paw in control animals. The number of flinches was counted for 15 minutes, beginning 20 minutes after injection of formalin. The time spent licking the affected paw was also recorded.
Male Rj: Wistar (Han) rats, 10 per group, weighing 100-130 g at the beginning of the experiments were studied per group. The test was performed blind.
Lacosamide (20 mg/kg), gabapentin (50 and 100 mg/kg), combinations of lacosamide (20 mg/kg) with gabapentin (50 and 100 mg/kg), and vehicle were administered i.p. 10 minutes before injection of formalin.
Lacosamide (10 and 20 mg/kg), morphine (2 and 4 mg/kg), combinations of lacosamide (10 and 20 mg/kg) with morphine (2 and 4 mg/kg), and vehicle were administered i.p. 10 minutes before injection of formalin.
Lacosamide (10 mg/kg), duloxetine (8 mg/kg), a combination of lacosamide (10 mg/kg) with duloxetine (8 mg/kg), and vehicle were administered i.p. 10 minutes before injection of formalin.
Lacosamide (10 and 20 mg/kg), memantine (4 and 8 mg/kg), combinations of lacosamide (10 and 20 mg/kg) with memantine (4 and 8 mg/kg), and vehicle were administered i.p. 10 minutes before injection of formalin.
Lacosamide (10 and 20 mg/kg), naproxen (8 and 16 mg/kg), combinations of lacosamide (10 and 20 mg/kg) with […] (8 and 16 mg/kg), and vehicle were administered i.p. 10 minutes before injection of formalin. Morphine (8 mg/kg) was included as a comparative treatment.

[4] = test system: muscle pressure hyperalgesia induced by TNF; assay: TNF-induced muscle pressure hyperalgesia (Randall-Selitto, gastrocnemius muscle); assay type: in vivo, rat; settings: for reversal of muscular mechanical hyperalgesia (withdrawal threshold to muscle pressure): TNF 1 μg i.m. gastrocnemius; for full reversal of the muscle hyperalgesia: doses tested (pregabalin 30, 100 mg/kg; gabapentin 100 mg/kg i.p.)
Description: (§1) The model used in this example is applicable to musculoskeletal pain which occurs in fibromyalgia, myofascial pain syndrome or back pain. For comparative purposes, the non-opioid analgesic dipyrone (metamizol) and the anticonvulsants pregabalin and gabapentin were included in the study.
(§2) Adult male Sprague Dawley rats with a body weight of 250 g to 300 g were used (supplier: Charles River, Sulzfeld, Germany). Animals were group-housed (3 animals per cage) and maintained in a room with controlled temperature (21-22° C.) and a reversed light-dark cycle (12 h/12 h) with food and water available ad libitum. All experiments were approved by the Bavarian State animal experimentation committee and carried out in accordance with its regulations.
(§3) Recombinant rat tumor necrosis factor alpha (herein referred to as TNF) was obtained from R&D Systems, Minneapolis, Minn., U.S.A. TNF was diluted in 0.9% NaCl and used in a concentration of 1 μg in 50 μl. Injections were performed in short halothane narcosis with a 30 g needle bilaterally into the gastrocnemius or into the biceps brachii muscle. All rats were used to the behavioral tests before injections and baseline values were recorded over three test days.
Mechanical withdrawal thresholds to muscle pressure were measured with an analgesimeter (Ugo Basile, Comerio, Italy). The rat was allowed to crawl into a sock which helps the rat to relax. The hind limbs were positioned such that an increasing pressure could be applied onto the gastrocnemius muscle (maximum 250 g). The pressure needed to elicit withdrawal was recorded. Means of 3 trials for each hind limb were calculated (interstimulus interval of >30 sec). Only animals with a significant TNF effect were included for further analysis.
Rats were injected with TNF into the gastrocnemius muscle at 2 pm. Eighteen hours later, rats were tested for pressure hyperalgesia pre- and post-administration of the test drug. Rats were tested for pressure hyperalgesia 30 to 60 minutes after drug administration.
(§4) The rats, initially 10 per group, were treated with either 3, 10 or 30 mg/kg lacosamide, 2 mg/kg metamizol, 30 or 100 mg/kg pregabalin, 100 mg/kg gabapentin, or the NaCl vehicle, i.p. (intraperitoneally). Volume of i.p. injections was 0.5 ml. A pilot study was performed to confirm that i.m. (intramuscular) injection of 1 μg TNF into the gastrocnemius muscle was sufficient to induce pressure hyperalgesia.
(§5) Data are shown in graphs displaying means and standard errors of the means (SEM). Pre- and post-treatment data were compared using ANOVA (analysis of variance) and a Tukey post hoc test. Means of treatment groups were compared using a one-way ANOVA and Dunnett's post hoc test. Maximal possible effects (MPE) were calculated for all types of treatment.

[5] = test system: TNF-induced reduction of grip strength; assay: biceps muscle grip strength after TNF-induced muscle pain; assay type: in vivo, rat; settings: for reversal of TNF-induced reduction of grip strength: TNF 1 μg i.m. biceps brachii
Description: as §1, §2, §3
Grip strength of the forelimbs was tested with a digital grip force meter (DFIS series, Chatillon, Greensboro, N.C., U.S.A.). The rat was positioned to grab the grid with the forelimbs and was gently pulled so that the grip strength could be recorded. Means of three trials were calculated. The effect of the TNF treatment was calculated for each animal separately and only animals with a significant TNF effect were included for further analysis.
Rats were injected with TNF into the biceps brachii muscle at 8 am. Six hours later, grip strength of the forelimbs was tested with a digital grip force meter. Test drug was administered, and grip strength was again tested after 30 to 60 minutes.
as §4, §5

[6] = Example 5, duloxetine 8 mg/kg i.p.
[7] = Example 3, gabapentin 50 mg/kg i.p.
[8] = Example 3, gabapentin 100 mg/kg i.p.
[9] = Example 4, morphine 2 mg/kg i.p.
[10] = Example 4, morphine 4 mg/kg i.p.
[11] = Example 7, morphine 8 mg/kg i.p.
[12] = 3 mg/kg (lacosamide p.o., morphine s.c.)

## O=C(O)Cc1ccccc1Nc1c(Cl)cccc1Cl [Diclofenac, diclofenac]
[1]; day 3, 30 mg/kg (lacosamide p.o., diclofenac s.c.)
  tactile allodynia of iodoacetate-treated rats: no effect
[1]; day 7, 30 mg/kg (lacosamide p.o., diclofenac s.c.)
  tactile allodynia of iodoacetate-treated rats: no effect
[1]; day 14, 30 mg/kg (lacosamide p.o., diclofenac s.c.)
  tactile allodynia of iodoacetate-treated rats: no effect
[2]; 30 mg/kg s.c.
  mechanical hyperalgesia (paw pressure withdrawal threshold) compared to iodoacetate/vehicle treated animals: increase in paw pressure withdrawal threshold
[2]; 30 mg/kg (lacosamide p.o., diclofenac s.c.)
  mechanical hyperalgesia (paw pressure withdrawal threshold): reduced mechanical hyperalgesia

## CNCC[C@H](Oc1cccc2ccccc12)c1cccs1 [Duloxetine, duloxetine, reference compound]
[3]; [6]
  Licking time % change (a): compared with vehicle control: −26%
  Licking time (seconds) mean ± SEM: 195.5 ± 45.0 s
  No. of flinches % change (a): compared with vehicle control: −1%
  No. of flinches mean ± SEM: 149.6 ± 27.3
  effects on number of flinches and time spent licking: no clear effects

## NCC1(CC(=O)O)CCCCC1 [Gabapentin, gabapentin, reference compound]
[3]; [7]
  Licking time % change (a): compared with vehicle control: −28%
  Licking time (seconds) mean ± SEM: 161.0 ± 27.3 s
  No. of flinches % change (a): compared with vehicle control: −24%
  No. of flinches mean ± SEM: 97.4 ± 23.8
  decrease in the number of flinches as compared with vehicle controls: 24%
  decrease in the time spent licking as compared with vehicle controls: 28%
[3]; [8]
  Licking time % change (a): compared with vehicle control: −60%
  Licking time (seconds) mean ± SEM: 90.0 ± 22.5 s
  No. of flinches % change (a): compared with vehicle control: −31%
  No. of flinches mean ± SEM: 88.1 ± 19.4
  decrease in the number of flinches as compared with vehicle controls: 31%
  decrease in the time spent licking as compared with vehicle controls: 60%
[4]; 100 mg/kg i.p.
  MPE (maximal possible effect) on muscle pressure hyperalgesia, versus vehicle: significantly different from vehicle
  reversal of muscular mechanical hyperalgesia (withdrawal threshold to muscle pressure): significant reversal
[4]
  full reversal of the muscle hyperalgesia: Neither pregabalin nor gabapentin led to a full reversal
[5]; 100 mg/kg i.p.
  MPE (maximal possible effect) on biceps muscle grip strength, versus vehicle: significantly different from vehicle
[5]; 100 mg/kg i.p., 100 mg/kg
  reversal of TNF-induced reduction of grip strength: significant reversal; also recorded: improved grip strength

## CC12CC3CC(C)(C1)CC(N)(C3)C2 [Memantine, memantine, reference compound]
[3]; Example 6, memantine 4 and 8 mg/kg i.p.
  effect on the number of flinches as compared with vehicle controls: did not clearly affect

## CN1CC[C@]23c4c5ccc(O)c4O[C@H]2[C@@H](O)C=C[C@H]3[C@H]1C5 [Morphine, morphine, reference compound]
[3]; [9]
  Licking time % change (a): compared with vehicle control: −1%
  Licking time (seconds) mean ± SEM: 289.3 ± 30.7 s
  No. of flinches % change (a): compared with vehicle control: −7%
  No. of flinches mean ± SEM: 139.5 ± 25.3
[3]; [10]
  Licking time % change (a): compared with vehicle control: −20%
  Licking time (seconds) mean ± SEM: 234.9 ± 37.3 s
  No. of flinches % change (a): compared with vehicle control: −37%
  No. of flinches mean ± SEM: 94.3 ± 21.1
[3]; Example 4, morphine 2 and 4 mg/kg i.p.
  effects on the number of flinches and the time spent licking as compared with vehicle controls: did not reach statistical significance
[3]; [11]
  Licking time % change (a): compared with vehicle control: −100%
  Licking time (seconds) mean ± SEM: 0.0 ± 0.0 s
  No. of flinches % change (a): compared with vehicle control: −100%
  No. of flinches mean ± SEM: 0.2 ± 0.1
  effect on flinching and the time spent licking as compared with vehicle controls: eliminated
[1]; day 3, 3 mg/kg s.c.
  tactile allodynia of iodoacetate-treated rats: improved
[1]; day 7, 3 mg/kg s.c.
  tactile allodynia of iodoacetate-treated rats: improved
[1]; day 14, 3 mg/kg s.c.
  tactile allodynia of iodoacetate-treated rats: not on day 14
[2]; [12]
  mechanical hyperalgesia (paw pressure withdrawal threshold) compared to iodoacetate/vehicle treated animals: increase in paw pressure withdrawal threshold
  mechanical hyperalgesia (paw pressure withdrawal threshold): reduced mechanical hyperalgesia

## COc1ccc2cc([C@H](C)C(=O)O)ccc2c1 [Naproxen, naproxen, reference compound]
[3]; Example 7, naproxen 8 and 16 mg/kg i.p.
  effect on the number of flinches or the time spent licking as compared with vehicle controls: did not clearly affect

## Cc1c(N(C)CS(=O)(=O)O)c(=O)n(-c2ccccc2)n1C [metamizol]
[4]; 2 mg/kg i.p.
  MPE (maximal possible effect) on muscle pressure hyperalgesia, versus vehicle: significantly different from vehicle
  reversal of muscular mechanical hyperalgesia (withdrawal threshold to muscle pressure): complete reversal
[5]; 2 mg/kg i.p.
  MPE (maximal possible effect) on biceps muscle grip strength, versus vehicle: significantly different from vehicle
  reversal of TNF-induced reduction of grip strength: significant reversal

## CC(C)C[C@H](CN)CC(=O)O [pregabalin]
[4]; 30 mg/kg i.p.
  MPE (maximal possible effect) on muscle pressure hyperalgesia, versus vehicle: significantly different from vehicle
  reversal of muscular mechanical hyperalgesia (withdrawal threshold to muscle pressure): significant reversal
[4]; 100 mg/kg i.p.
  MPE (maximal possible effect) on muscle pressure hyperalgesia, versus vehicle: significantly different from vehicle
  reversal of muscular mechanical hyperalgesia (withdrawal threshold to muscle pressure): significant reversal
[4]
  full reversal of the muscle hyperalgesia: Neither pregabalin nor gabapentin led to a full reversal
[5]; 100 mg/kg i.p.
  MPE (maximal possible effect) on biceps muscle grip strength, versus vehicle: significantly different from vehicle
[5]; 100 mg/kg i.p., 100 mg/kg
  reversal of TNF-induced reduction of grip strength: significant reversal; also recorded: improved grip strength
